Here are results for 28 compounds from patent US8258130B2 (Sanofi, priority 2007, dated 2012).

pIC50: −log10 of the molar value.

One may read the pIC50 as the negative decadic logarithm of the IC50, by convention in mol/L. Read a high pIC50 as a small IC50.

For the test, the target named is human h-PGDS (Homo sapiens, UniProt O60760). In words: Enzyme Immunoassay (EIA) method, inhibition of hematopoietic PGD2 synthase. The test is classed as biochemical. The conditions noted are these: EIA assay, PGD2 formed from PGH2 by human h-PGDS. The procedure:
Assay 2: Enzyme Immunoassay (EIA) Method
• a. Preparation of 0.1M K2HPO4/KH2PO4 buffer (pH 7.4) • Prepare 0.1 M KH2PO4 from 1M KH2PO4 (Sigma, Cat# P-8709) • Prepare 0.1 M K2HPO4 from powder of K2HPO4 (Fisher, BP363-500) • Mix 0.1 M K2HPO4 with 0.1 M KH2PO4 to adjust pH to 7.4. • b. Preparation of 0.5% γ-globulin • Add 0.1 g of γ-globulin (Sigma, Cat# G-5009) to 20 mL 0.1 M K2HPO4/KH2PO4 buffer (pH 7.4) and make 1-mL/vial aliquots and store in −80° C. • c. Preparation of 100 mM GSH • Add 307 mg of GSH (Sigma, Cat# G-6529) to 10 mL 0.1 M K2HPO4/KH2PO4 buffer (pH 7.4) and store at −80° C. • d. Preparation of Reaction buffer: • 198 mL of 0.1M K2HPO4/KH2PO4 buffer (pH 7.4) • 2 mM GSH—Prepared from 100 mM GSH • 0.4 g Glycerol • 2 mL of 0.5% γ-globulin • Add 0.4 g of glycerol and 2 mL of 0.5% γ-globulin to 198 mL of 0.1 M K2HPO4/KH2PO4 • buffer (pH7.4). • Add 0.4 mL of 100 mM GSH to 19.6 mL reaction buffer before the assay (enough for two 96-well plates). • e. Preparation of FeCl2/citric acid stopping solution: (8 mg/mL FeCl2, 0.1 M citric acid) • Add 40 mg fresh FeCl2 (IGN, Cat# 158046) to 5 mL 0.1 M citric acid (Sigma, Cat# C0759). • f. Preparation of MOX reagent: • 10% EtOH—Add 1 mL of EtOH to 9 mL of ultra pure H2O • Dissolve 0.1 g of methoxyl amine (Cayman, Cat# 400036/) in 10% EtOH (10 mL). • Add 0.82 g of sodium acetate (Cayman, Cat#400037) to MOX solution and dissolve. II. Materials and Method • Dimethylsulfoxide (DMSO; Sigma; Cat# D2650) • Prostaglandin D2-MOX express EIA kit (Caymen Chemical, Catalog No. 500151)
Before the assay, cool down 10 mL of acetone in polypropylene tubes and empty 96 well plates in ice. All the procedures except compound dilution are performed on ice.
• 1. Dilute compound in DMSO
• 2. Dilute 2 μL of each above concentration of compound to 38 μL of reaction buffer in 96-well plates and mix. IV. Enzyme and Substrate Solution Preparation • 1 Preparation of 0.39 ng/μL enzyme solution (0.35 ng/μL at final after compound addition). • Mix 4 μL of 4 mg/mL human h-PGDS with 396 μL of reaction buffer (to give enzyme concentration 40 μg/mL). Add 46.8 μL of 40 μg/mL h-PGDS to 4.753 mL of reaction buffer to give a total volume of 4.8 mL • 2. Preparation of Substrate Solution (PGH2): Add 0.375 mL of 0.1 mg/mL of PGH2 to 1.625 mL acetone. V. Enzyme Reaction: • 1. Add 60 μL of enzyme solution to compound well and positive control (without compound) in U-bottom polypropylene plate on ice. • 2. Add 60 μL of reaction buffer and 6.6 μL of 5% DMSO in reaction buffer into negative control wells in the plate. • 3. Add 6.6 μL of diluted compound in reaction buffer to the compound wells and mix. • 4. Add 6.6 μL of 5% DMSO in reaction buffer to the positive control well. • 5. Incubate the plate in ice for at least 30 min. • 6. Add 20 μL of substrate (PGH2) solution to compound, negative and positive control wells in the U-bottom 96 well plate on ice. • 7. Dry the plate in cold room for about 25-28 min. • 8. Pipette 45 μL of enzyme solution (above) into 96-wells with dried PGH2 and mix 3 times. Incubate on the ice for 1 min. • 9. Add 45 μL of FeCl2 solution into each wells and mix. • 10. Add 90 μL of MOX solution and mix. • 11. Incubate for 30 min at 60° C. • 12. Dilute the samples 2500× with EIA buffer. VI. EIA Assay • Perform the assay according to the procedure in EIA kit provided by Cayman. Total PGD2 levels (pg/mL) were determined in the samples by EIA kits (Caymen Chemical, Catalog No. 500151) Calculate Amount of PGD2 as Below • Calculated % Positive control according to the equation below; % Positive control=(Compound value−Negative control)/(Positive value−Negative control value)×100. […]

human h-PGDS, sequence (O60760 whole entry): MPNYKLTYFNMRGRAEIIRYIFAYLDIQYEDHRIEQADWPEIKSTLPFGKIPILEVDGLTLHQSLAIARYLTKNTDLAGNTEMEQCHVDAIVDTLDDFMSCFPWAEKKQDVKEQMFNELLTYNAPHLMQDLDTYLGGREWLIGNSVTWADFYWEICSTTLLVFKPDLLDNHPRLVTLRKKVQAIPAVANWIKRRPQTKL

For the compound `Cc1nc(-c2ccccn2)ncc1C(=O)Nn1cc(C)c2cc(F)ccc21` [Example 3, 4-Methyl-2-pyridin-2-yl-pyrimidine-5-carboxylic acid (5-fluoro-3-methyl-indol-1-yl)amide], the negative logarithm of the IC50 (pIC50) was 8.15.

The compound `Cc1cn(NC(=O)c2cnc(-c3cccnc3)nc2)c2ccc(F)cc12` [Example 6, 2-Pyridin-3-yl-pyrimidine-5-carboxylic acid (5-fluoro-3-methyl-indol-1-yl)-amide] had a pIC50 of 8.00.

With `Cc1nc(-c2cccc(F)c2)ncc1C(=O)Nn1cc(C)c2cc(F)ccc21` [Example 10, 2-(3-Fluoro-phenyl)-4-methyl-pyrimidine-5-carboxylic acid (5-fluoro-3-methyl-indol-1-yl)-amide], the negative logarithm of the IC50 (pIC50) was 8.22.

`Cc1nc(-c2ccccn2)ncc1C(=O)Nn1c(C)cc2cc(F)ccc21` [Example 12, 4-Methyl-2-pyridin-2-yl-pyrimidine-5-carboxylic acid (5-fluoro-2-methyl-indol-1-yl)-amide] showed a pIC50 of 8.10.

`O=C(NN1CCN(C(=O)OCc2ccccc2)CC1=O)c1cnc(-c2ccccc2)nc1` [Example 20, 3-Oxo-4-[(2-phenyl-pyrimidine-5-carbonyl)-amino]-piperazine-1-carboxylic acid benzyl ester] had a pIC50 of 6.99.

`O=C(Nn1ccc2c(F)cccc21)c1cnc(-c2cccc(F)c2)nc1` [Example 31, 2-(3-Fluorophenyl)pyrimidine-5-carboxylic acid-(4-fluoroindol-1-yl)amide] gave a pIC50 of 7.96.

`Cc1nc(-c2cccc(F)c2)ncc1C(=O)Nn1cc(-c2nnn[nH]2)c2cc(F)ccc21` [Example 42, 2-(3-Fluoro-phenyl)-4-methyl-pyrimidine-5-carboxylic acid [5-fluoro-3-(1H-tetrazol-5-yl)-indol-1-yl]-amide] showed a negative logarithm of the IC50 (pIC50) of 8.30.

For `O=C(Nn1cnnc1)c1cnc(-c2ccccc2)nc1` [Example 43, 2-Phenyl-pyrimidine-5-carboxylic acid [1,2,4]triazol-4-ylamide], the pIC50 is 6.58.

`O=C(NNc1ccccc1F)c1cnc(-c2ccccc2)nc1` [Example 45, 2-Phenyl-pyrimidine-5-carboxylic acid N′-(2-fluoro-phenyl)-hydrazide] showed a negative-log IC50 (pIC50) of 7.92.

The compound `O=C(NN1CCOCC1=O)c1cnc(-c2ccccc2)nc1` [Example 47, 2-Phenyl-pyrimidine-5-carboxylic acid (3-oxo-morpholin-4-yl)-amide] gave a negative logarithm of the IC50 (pIC50) of 7.26.

The compound `Cc1nc(-c2ncc(C(=O)NN3CCN(CCO)CC3)cn2)no1` [Example 48, 2-(5-Methyl-[1,2,4]oxadiazol-3-yl)-pyrimidine-5-carboxylic acid [4-(2-hydroxy-ethyl)-piperazin-1-yl]-amide] gave a negative logarithm of the IC50 (pIC50) of 6.34.

Take `O=C(NN1CCOCC1)c1cnc(C(=O)c2ccccc2)nc1` [Example 50, 2-Benzoyl-pyrimidine-5-carboxylic acid morpholin-4-ylamide]: the negative-log IC50 (pIC50) was 6.47.

For `O=C(NN1CCN(CCO)CC1)c1cnc(C(=O)c2ccccc2)nc1` [Example 51, 2-Benzoyl-pyrimidine-5-carboxylic acid [4-(2-hydroxy-ethyl)-piperazin-1-yl]-amide], the pIC50 is 6.18.

Compound `O=C(NN1CCCCC1=O)c1cnc(-c2ccccc2)nc1` [Example 56, 2-Phenyl-pyrimidine-5-carboxylic acid N′-(2-oxo-piperidin-1-yl)-amide] had a pIC50 of 7.26.

The compound `CN(NC(=O)c1cnc(-c2ccccc2)nc1)C1CCCCC1` [Example 57, 2-Phenyl-pyrimidine-5-carboxylic acid N′-cyclohexyl-N′-methyl-hydrazide] gave a pIC50 of 6.83.

As to `O=C(NN1CCOCC1)c1cnc(Oc2ccccc2)nc1` [Example 58, 2-Phenyoxy-pyrimidine-5-carboxylic acid N′-morpholin-4-yl-amide], the pIC50 is 6.64.

`COc1cccc(-c2ncc(C(=O)NN3CC(C)=NNC3=O)cn2)c1` [Example 59, 2-(3-Methoxy-phenyl)-pyrimidine-5-carboxylic acid (6-methyl-3-oxo-2,5-dihydro-3H-[1,2,4]triazin-4-yl)-amide] showed a negative logarithm of the IC50 (pIC50) of 6.76.

For `O=C(Nn1cc(Br)c(=O)[nH]c1=O)c1cnc(-c2ccccc2)nc1` [Example 72, 2-Phenyl-pyrimidine-5-carboxylic acid (5-bromo-2,4-dioxo-3,4-dihydro-2H-pyrimidin-1-yl)-amide], the pIC50 was 6.97.

In turn, `O=C(NN1CC(CN2CCOCC2)OC1=O)c1cnc(-c2ccccc2)nc1` (stereo not shown) [Example 75, 2-Phenyl-pyrimidine-5-carboxylic acid (5-morpholin-4-ylmethyl-2-oxo-oxazolidin-3-yl)-amide] gave a negative logarithm of the IC50 (pIC50) of 7.70.

In turn, `O=C(NN1CCOC1=O)c1cnc(-c2ccccc2)nc1` [Example 77, 2-Phenyl-pyrimidine-5-carboxylic acid (2-oxo-oxazolidin-3-yl)-amide] showed a negative logarithm of the IC50 (pIC50) of 7.31.

For the compound `O=C(NN1CCc2ccccc21)c1cnc(-c2ccccc2)nc1` [Example 82, 2-Phenyl-pyrimidine-5-carboxylic acid (2,3-dihydro-indol-1-yl)-amide], the pIC50 is 8.70.

On to `O=C(NN1CCN(C2CCOC2=O)CC1)c1cnc(-c2ccccc2)nc1` (stereo not shown) [Example 87, 2-Phenyl-pyrimidine-5-carboxylic acid [4-(2-oxo-tetrahydro-furan-3-yl)-piperazin-1-yl]-amide], for which the pIC50 was 7.59.

Turning to `O=C(NN1CCN(C(=O)C(F)(F)F)CC1)c1cnc(-c2ccccc2)nc1` [Example 88, 2-Phenyl-pyrimidine-5-carboxylic acid [4-(2,2,2-trifluoro-acetyl)-piperazin-1-yl]-amide], the pIC50 was 7.24.

`O=C(NN1CCN(CC(=O)N2CCOCC2)CC1)c1cnc(-c2ccccc2)nc1` [Example 90, 2-Phenyl-pyrimidine-5-carboxylic acid [4-(2-morpholin-4-yl-2-oxo-ethyl)-piperazin-1-yl]-amide] had a pIC50 of 6.08.

`O=C(NN1CCc2ccccc21)c1cnc(-c2cccc(F)c2)nc1` [Example 91, 2-(3-Fluoro-phenyl)-pyrimidine-5-carboxylic acid (2,3-dihydro-indol-1-yl)-amide]: the pIC50 was 8.52.

`O=C(NN1CCCCC1)c1cnc(-c2cccc(F)c2)nc1` [Example 92, 2-(3-Fluoro-phenyl)-pyrimidine-5-carboxylic acid piperadin-1-yl-amide] had a negative logarithm of the IC50 (pIC50) of 7.71.

`Cc1nc(-c2ccccc2)ncc1C(=O)NN1CCc2ccccc21` [Example 95, 4-Methyl-2-phenyl-pyrimidine-5-carboxylic acid (2,3-dihydro-indol-1-yl)-amide] had a negative-log IC50 (pIC50) of 8.26.

Regarding `CC1Cc2ccccc2N1NC(=O)c1cnc(-c2ccccc2)nc1` (stereo not shown) [Example 99, 2-Phenyl-pyrimidine-5-carboxylic acid (2-methyl-2,3-dihydro-indol-1-yl)-amide], the pIC50 was 8.40.
